Reference: US20050209157A1, “Short bioactive peptides and methods for their use” (priority 2001, published 2005)
Like-named read-outs stand apart in the source and are kept apart here. No end group written: not given here.

What was measured:
[1] = tested on: Staphylococcus aureus ATCC 6538; test: Antimicrobial assay I, MIC by OD measurement; format: cell-based; settings: 37° C. for 24 hours, absorbance 620 nm
[2] = tested on: Pseudomonas aeruginosa ATCC 9027; test: Antimicrobial assay I, MIC by OD measurement; format: cell-based; settings: 37° C. for 24 hours, absorbance 620 nm
[3] = tested on: yeast (Saccharomyces cerevisiae); test: Antimicrobial assay I, yeast assay in RPMI 1640; format: cell-based; settings: RPMI 1640 media
[4] = in vitro; settings: human, WI38 normal lung fibroblast cells, LD50 WI38, WI38 normal lung fibroblast line, MTT, 24 hours with peptide
[5] = tested on: laminin; test: Laminin stimulation, ELISA on fibroblast cell lines; format: cell-based
Experimental: Fibroblast cell lines were cultured under standard conditions and assayed for collagen and laminin using an ELISA system manufactured by Panvera (Madison, Wis.). Antibodies for collagen and laminin manufactured by Takara Shuzo Co., Ltd Japan. […] The other three peptides tested neither stimulated nor inhibited production (i.e. no effect was observed).

[6] = tested on: WI38; settings: MTT, 24 hours with peptide; normal fibroblast line
[7] = tested on: E. coli UB1005; format: cell-based, Escherichia coli; settings: mean of three; 16 to 20 hours at 35° C.; in µg/mL
[8] = tested on: P. aeruginosa H774; format: cell-based, Pseudomonas aeruginosa; settings: P. aeruginosa H744; nalidixic acid + peptide at ¼ MIC; 0.5 or less = synergy
In short: (§1)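 Synergy against efflux-mutant strains: two-fold dilutions of nalidixic acid or chloramphenicol tested with peptide held at ¼ of its MIC.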

[9] = tested on: P. aeruginosa H374; format: cell-based, Pseudomonas aeruginosa; settings: for MIC Cm-comb.: MIC of chloramphenicol with peptide at ¼ MIC; for MIC Nal-comb.: MIC of nalidixic acid with peptide at ¼ MIC; for FIC Index: 0.5 or less = synergy
In short: as §1

[10] = tested on: P. aeruginosa; format: cell-based, Pseudomonas aeruginosa; settings: P. aeruginosa H744; MIC of nalidixic acid with peptide at ¼ MIC
In short: as §1

[11] = tested on: BMKC; test: Anti-cancer assay, MTT, LD50; format: cell-based; settings: BMKC cloned melanoma line, 24 hours with peptide
Description: (§2) Numbers are LD50 values (μg/mL).

[12] = tested on: MCF7; test: Anti-cancer assay, MTT, LD50; format: cell-based; settings: MCF7 breast adenocarcinoma line, MTT, 24 hours with peptide
Description: as §2

[13] = tested on: H1299; test: Anti-cancer assay, MTT, LD50; format: cell-based; settings: 24 hours with peptide, lung large cell carcinoma
Description: as §2

[14] = tested on: PC3; test: Anti-cancer assay, MTT, LD50; format: cell-based; settings: 24 hours with peptide, prostate adenocarcinoma
Description: as §2

[15] = tested on: HeLaS3; test: Anti-cancer assay, MTT, LD50; format: cell-based; settings: 24 hours with peptide, cervical carcinoma
Description: as §2

[16] = tested on: SW480; test: Anti-cancer assay, MTT, LD50; format: cell-based; settings: SW480 colon adenocarcinoma line, 24 hours with peptide
Description: as §2

[17] = tested on: P. acne ATCC 6919; test: Antimicrobial assays II, NCCLS broth microdilution MIC; format: cell-based, Propionibacterium acnes; settings: mean of three, in µg/mL
[18] = tested on: S. pyogenes M76; test: as above; format: cell-based, Streptococcus pyogenes; settings: mean of three; 16 to 20 hours at 35° C.
[19] = tested on: S. aureus (MRSA); format: cell-based, Staphylococcus aureus; settings: mean of three; 16 to 20 hours at 35° C.
[20] = chloramphenicol + peptide at ¼ MIC
[21] = nalidixic acid + peptide at ¼ MIC, FIC=0.25+MIC comb/MIC alone

Substance | staph6538 (MIC) [1] | paerug9027 (MIC) [2] | yeast (MIC or MFC) [3] | CC50 at 24 h [4] | Laminin stimulation [5] | WI38 LD50 [6] | E. coli UB1005 MIC [7] | FIC Index [8] | MIC Cm-comb. [9] | MIC Nal-comb. [9] | FIC Index [9, 20] | FIC Index [9, 21] | MIC Nal-comb. [10] | LD50 BMKC [11] | LD50 MCF7 [12] | H1299 LD50 [13] | PC3 LD50 [14] | HeLaS3 LD50 [15] | LD50 SW480 [16] | P. acne MIC [17] | other results
MPKWKVFKKIEKVGRNIRNGIVKAGPAIAVLGEAKALG-NH2 [P12, reference compound] | > (> indicates greater than 200 μg/mL) | 100 µg/mL | > (> indicates greater than 200 μg/mL) | 950 µg/mL | 0% | 950 µg/mL | 1 | 0.75 | 16 µg/mL | 2500 µg/mL | 1.25 | 0.75 | 312 µg/mL | > (> indicates greater than 1000) | 540 µg/mL | 720 µg/mL | 630 µg/mL | > (> indicates greater than 1000) | > (> indicates greater than 1000) |  | 
FALKALKKLKKALKKAL-NH2 [P153] | 5 µg/mL | 25 µg/mL | 100 µg/mL | 130 µg/mL | 32% | 130 µg/mL |  | 1.25 | 8 µg/mL | 5000 µg/mL | 0.75 | 1.25 | 624 µg/mL | 165 µg/mL | 64 µg/mL | 50 µg/mL | 97 µg/mL | 140 µg/mL | 61 µg/mL | 4 | S. pyogenes M76 MIC [18]: 2 µg/mL; S. aureus (MRSA) MIC [19]: 16 µg/mL
FAVGLRAIKRALKKLRRGVRKVAKDL-NH2 [P157, reference compound] | 200 µg/mL | > (> indicates greater than 200 μg/mL) | > (> indicates greater than 200 μg/mL) | 500 µg/mL |  | 500 µg/mL | 8 | 1.25 | 8 µg/mL | 2500 µg/mL | 0.75 | 0.75 | 624 µg/mL | 600 µg/mL | 240 µg/mL | 315 µg/mL | 375 µg/mL | > (> indicates greater than 1000) | 530 µg/mL | 4 | S. pyogenes M76 MIC [18]: 8 µg/mL; S. aureus (MRSA) MIC [19]: 32 µg/mL
